Laboratory results published in ChEMBL document CHEMBL5137082, “Discovery of a Novel Vascular Disrupting Agent Inhibiting Tubulin Polymerization and HDACs with Potent Antitumor Effects” (J Med Chem, 2022).
Active and inactive are the calls of the source. No cut-off for these calls is given here.

Legend:
[1] = Metabolic stability in mouse plasma assessed as compound remaining at 40 uM measured after 5 hrs by LC-MS/MS analysis (reference value: 100%); assay type: ADME, cell-free
Histone deacetylase 1 = Histone deacetylase 1 (Homo sapiens, UniProt Q13547); assay: Inhibition of HDAC1 in human HepG2 cells assessed as increase in level of acetyl histone H3substrate incubated for 24 hrs by chemiluminescence based Western blotting analysis; assay type: cell-based; details: dose 0.03-0.3 µM
Histone deacetylase 1, sequence (Q13547 whole entry): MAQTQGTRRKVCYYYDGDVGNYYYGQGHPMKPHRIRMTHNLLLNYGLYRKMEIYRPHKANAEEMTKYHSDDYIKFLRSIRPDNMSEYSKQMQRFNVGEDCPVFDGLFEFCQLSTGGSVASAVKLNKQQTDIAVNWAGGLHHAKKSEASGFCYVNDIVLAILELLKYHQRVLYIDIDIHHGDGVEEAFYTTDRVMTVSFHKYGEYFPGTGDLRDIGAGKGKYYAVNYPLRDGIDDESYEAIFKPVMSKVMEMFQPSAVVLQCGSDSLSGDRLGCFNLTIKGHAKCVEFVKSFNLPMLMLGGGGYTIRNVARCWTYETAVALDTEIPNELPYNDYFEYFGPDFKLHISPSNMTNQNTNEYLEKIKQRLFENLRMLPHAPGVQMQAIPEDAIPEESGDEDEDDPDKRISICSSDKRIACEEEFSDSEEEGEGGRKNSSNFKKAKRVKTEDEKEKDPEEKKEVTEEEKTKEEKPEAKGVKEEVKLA

HepG2 [2] = assay: Induction of cell cycle arrest in human HepG2 cells assessed as accumulation G2 phase at 7.5 nM incubated for 48 hrs by propidium iodide staining based flow cytometry analysis (reference value: 23.55 +/- 0.29%); assay type: functional
HepG2 [3] = assay: Induction of G2/M phase cell cycle arrest in human HepG2 cells assessed as decrease in Cdc2 protein expression at 7.5 to 30 nM measured after 24 hrs by western blot analysis; assay type: functional, cell-based; details: dose 7.5-30 nM
HepG2 [4] = assay: Induction of G2/M phase cell cycle arrest in human HepG2 cells assessed as decrease in Cdc25c protein expression at 7.5 to 30 nM measured after 24 hrs by western blot analysis; assay type: functional, cell-based; details: dose 7.5-30 nM
PC-3 [5] = assay: Induction of apoptosis in human PC-3 cells assessed as mitochondrial membrane potential loss by measuring early apoptotic cells at 15 nM incubated for 48 hrs by JC1 staining based flow cytometry analysis (reference value: 6.50 +/- 0.17%); assay type: functional
HepG2 [6] = assay: Induction of cell cycle arrest in human HepG2 cells assessed as accumulation G1 phase at 7.5 nM incubated for 48 hrs by propidium iodide staining based flow cytometry analysis (reference value: 59.32 +/- 0.77%); assay type: functional
Tubulin (Homo sapiens) = Tubulin (Homo sapiens) (UniProt P68371+Q9H4B7+P0DPH7+P68366+Q13509+Q71U36+P04350+Q3ZCM7+P07437+P68363+Q9BQE3+Q6PEY2+Q13885+Q9BVA1+Q9BUF5); assay: Disruption of microtubule network in human HepG2 cells at 7.5 to 30 nM measured after 2 hrs by DAPI staining based immunofluorescence microscopic assay; assay type: cell-based; details: dose 7.5-30 nM
PC-3 [7] = assay: Induction of apoptosis in human PC-3 cells assessed as mitochondrial membrane potential loss by measuring decrease in red fluorescence at 15 nM incubated for 48 hrs by JC1 staining based flow cytometry analysis (reference value: 93.48 +/- 0.15%); assay type: functional; set-up: scale not given: the % may be the effect or the level left
[8] = Toxicity in ICR mouse allografted with mouse H22 cells assessed as pathological changes in liver at 20 mg/kg, iv administered qd measured after 21 days by H and E staining based analysis; assay type: organism-based; details: in vivo, 504 h, time 21 day
[9] = Induction of apoptosis in ICR mouse cardiac tissue at 20 mg/kg, iv administered qd measured after 21 days by TUNEL assay; assay type: toxicity, organism-based; details: in vivo, 504 h, time 21 day
HepG2 [10] = assay: Induction of apoptosis in human HepG2 cells assessed as viable cells at 15 nM incubated for 48 hrs by Annexin-V/PI-staining based flow cytometry (reference value: 91.44 +/- 0.74%); assay type: functional; details: read-out: Activity
[11] = Metabolic stability in mouse plasma assessed as compound remaining at 40 uM measured after 0.5 hrs by LC-MS/MS analysis (reference value: 100%); assay type: ADME, cell-free
[12] = Cardiotoxicity in ICR mouse allografted with mouse H22 cells assessed as effect on QRS complex at 20 mg/kg, iv administered qd measured after 21 days by ECG analysis; assay type: toxicity, organism-based; details: in vivo, 504 h, time 21 day
H22 = assay: Antitumor activity against mouse H22 cells allografted in ICR mouse assessed as reduction in tumor volume growth rate at 20 mg/kg, iv administered qd for 21 days measured after 12 days; assay type: functional, organism-based; details: time 21.0 day
HepG2 [13] = assay: Induction of cell cycle arrest in human HepG2 cells assessed as accumulation G2 phase at 15 nM incubated for 48 hrs by propidium iodide staining based flow cytometry analysis (reference value: 23.55 +/- 0.29%); assay type: functional
HepG2 [14] = assay: Induction of apoptosis in human HepG2 cells assessed as early apoptotic cells at 7.5 nM incubated for 48 hrs by Annexin-V/PI-staining based flow cytometry (reference value: 4.61 +/- 0.46%); assay type: functional
HepG2 [15] = assay: Induction of apoptosis in human HepG2 cells assessed as viable cells at 30 nM incubated for 48 hrs by Annexin-V/PI-staining based flow cytometry (reference value: 91.44 +/- 0.74%); assay type: functional; details: read-out: Activity
[16] = Metabolic stability in mouse plasma assessed as half life at 40 uM measured upto 5 hrs by LC-MS/MS analysis; assay type: ADME, cell-free
Histone deacetylase 3 = Histone deacetylase 3 (Homo sapiens, UniProt O15379); assay: Inhibition of HDAC3 in human HepG2 cells assessed as increase in level of acetyl histone H3substrate incubated for 24 hrs by chemiluminescence based Western blotting analysis; assay type: cell-based; details: dose 0.03-0.3 µM
Histone deacetylase 3, sequence (O15379 whole entry): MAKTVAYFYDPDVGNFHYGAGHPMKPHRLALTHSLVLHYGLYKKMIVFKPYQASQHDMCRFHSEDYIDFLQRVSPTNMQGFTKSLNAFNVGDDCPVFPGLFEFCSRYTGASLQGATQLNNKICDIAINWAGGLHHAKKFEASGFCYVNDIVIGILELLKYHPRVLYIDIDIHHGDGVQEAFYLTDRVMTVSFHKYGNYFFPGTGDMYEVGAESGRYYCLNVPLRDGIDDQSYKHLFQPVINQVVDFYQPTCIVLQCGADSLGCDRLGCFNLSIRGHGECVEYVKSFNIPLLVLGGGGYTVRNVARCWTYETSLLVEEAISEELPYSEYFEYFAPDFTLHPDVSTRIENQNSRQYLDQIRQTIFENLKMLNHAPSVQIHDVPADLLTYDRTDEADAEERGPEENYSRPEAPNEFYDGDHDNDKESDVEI

HepG2 [17] = assay: Induction of apoptosis in human HepG2 cells assessed as early apoptotic cells at 15 nM incubated for 48 hrs by Annexin-V/PI-staining based flow cytometry (reference value: 4.61 +/- 0.46%); assay type: functional
[18] = Metabolic stability in mouse assessed as hepatic clearance; assay type: ADME; details: 1 h, 1 µM, time < 60 min
HepG2 [19] = assay: Induction of apoptosis in human HepG2 cells assessed as late apoptotic cells at 7.5 nM incubated for 48 hrs by Annexin-V/PI-staining based flow cytometry (reference value: 2.53 +/- 0.34%); assay type: functional
HepG2 [20] = assay: Induction of cell cycle arrest in human HepG2 cells assessed as accumulation S phase at 15 nM incubated for 48 hrs by propidium iodide staining based flow cytometry analysis (reference value: 17.14 +/- 0.34%); assay type: functional
HepG2 [21] = assay: Induction of apoptosis in human HepG2 cells assessed as late apoptotic cells at 30 nM incubated for 48 hrs by Annexin-V/PI-staining based flow cytometry (reference value: 2.53 +/- 0.34%); assay type: functional
PC-3 [22] = assay: Induction of apoptosis in human PC-3 cells assessed as mitochondrial membrane potential loss by measuring decrease in red fluorescence at 30 nM incubated for 48 hrs by JC1 staining based flow cytometry analysis (reference value: 93.48 +/- 0.15%); assay type: functional; set-up: scale not given: the % may be the effect or the level left
HepG2 [23] = assay: Induction of ROS generation in human HepG2 cells assessed as increase in ROS level at 30 nM incubated for 48 hrs by DCF-DA staining-based flow cytometry analysis (reference value: 3.73%); assay type: functional
HepG2 [24] = assay: Induction of cell cycle arrest in human HepG2 cells assessed as accumulation S phase at 7.5 nM incubated for 48 hrs by propidium iodide staining based flow cytometry analysis (reference value: 17.14 +/- 0.34%); assay type: functional
Tubulin = assay: Inhibition of tubulin polymerization (unknown origin) preincubated for 15 mins followed by PEG and GTP addition measured after 30 mins by spectrophotometric method; assay type: protein-complex assay, Homo sapiens
HepG2 [25] = assay: Induction of cell cycle arrest in human HepG2 cells assessed as accumulation G1 phase at 15 nM incubated for 48 hrs by propidium iodide staining based flow cytometry analysis (reference value: 59.32 +/- 0.77%); assay type: functional
HepG2 [26] = assay: Induction of apoptosis in human HepG2 cells assessed as early apoptotic cells at 30 nM incubated for 48 hrs by Annexin-V/PI-staining based flow cytometry (reference value: 4.61 +/- 0.46%); assay type: functional
MDA-MB-231 = assay: Inhibition of cell migration in human MDA-MB-231 cells measured after 48 hrs by crystal violet staining based transwell assay; assay type: functional; details: dose 7.5-30 nM, DDE = dose-dependent effect

Compound: COc1ccc(CNC(=O)c2cc(F)ccc2N2CCOCC2)cc1/C=C/C(=O)NO
- Stability [1]: 16%
- inhibition (Histone deacetylase 1): Active
- Activity (HepG2 [2]): 24.42%
- Activity (HepG2 [3]): Active
- Activity (HepG2 [4]): Active
- Activity (PC-3 [5]): 35.4%
- Activity (HepG2 [6]): 54.77%
- Activity (Tubulin (Homo sapiens)): Active
- Activity (PC-3 [7]): 61.56%
- Activity [8]: Non-Toxic
- Activity [9]: Non-Toxic
- viability at 0.015 µM (HepG2 [10]): 65.7%
- Stability [11]: 59%
- Activity [12]: Non-Toxic
- Activity (H22): Active
- Activity (HepG2 [13]): 26.97%
- Activity (HepG2 [14]): 20.15%
- viability at 0.03 µM (HepG2 [15]): 46.6%
- half-life at 40 µM [16]: 2.1 h
- inhibition (Histone deacetylase 3): Active
- Activity (HepG2 [17]): 26.84%
- CLH [18]: 1.45 mL/min
- Activity (HepG2 [19]): 6.89%
- Activity (HepG2 [20]): 23.06%
- Activity (HepG2 [21]): 15.68%
- Activity (PC-3 [22]): 49.39%
- Activity (HepG2 [23]): 46.69%
- Activity (HepG2 [24]): 20.81%
- IC50 (Tubulin): 4.06 µM
- Activity (HepG2 [25]): 49.96%
- Activity (HepG2 [26]): 34.86%
- inhibition (MDA-MB-231): Dde
